The values that follow come from ChEMBL document CHEMBL3734707, “Synthesis and biological evaluation of pyrazolopyrimidines as potential antibacterial agents” (2015).

Assay [1] concerns the target T1, 2-C-methyl-D-erythritol 4-phosphate cytidylyltransferase (Burkholderia thailandensis (strain ATCC 700388 / DSM 13276 / CIP106301 / E264)) (UniProt Q2SWT6).
T1 sequence (whole entry): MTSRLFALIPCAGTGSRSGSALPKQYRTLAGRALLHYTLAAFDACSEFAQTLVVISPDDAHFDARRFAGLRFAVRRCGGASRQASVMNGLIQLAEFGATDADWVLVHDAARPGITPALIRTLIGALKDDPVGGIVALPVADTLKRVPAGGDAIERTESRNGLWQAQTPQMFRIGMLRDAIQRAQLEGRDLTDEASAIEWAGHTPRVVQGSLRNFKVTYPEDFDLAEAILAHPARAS
The assay can be described thus: Binding affinity to Burkholderia thailandensis E264 recombinant IspD (1 to 236 residues) at 250 uM by STD-NMR analysis in presence of CDP.

In assay [2] the target is T2, 4-diphosphocytidyl-2-C-methyl-D-erythritol kinase (Burkholderia thailandensis (strain ATCC 700388 / DSM 13276 / CIP106301 / E264)) (UniProt Q2T1B6).
T2 sequence (whole entry): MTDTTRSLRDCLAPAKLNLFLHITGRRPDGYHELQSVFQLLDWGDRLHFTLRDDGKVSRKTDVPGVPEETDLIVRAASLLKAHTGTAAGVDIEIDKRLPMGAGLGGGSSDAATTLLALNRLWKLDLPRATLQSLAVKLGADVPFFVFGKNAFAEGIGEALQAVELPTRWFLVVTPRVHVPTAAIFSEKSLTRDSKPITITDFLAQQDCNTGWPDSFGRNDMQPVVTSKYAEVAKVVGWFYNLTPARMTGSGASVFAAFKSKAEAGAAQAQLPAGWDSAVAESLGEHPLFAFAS
Description: Binding affinity to Burkholderia thailandensis E264 recombinant IspE (1 to 293 residues) assessed as maximum spectral signal at 250 uM by STD-NMR analysis.

Assay [3] deals with T2, 4-diphosphocytidyl-2-C-methyl-D-erythritol kinase (Burkholderia thailandensis (strain ATCC 700388 / DSM 13276 / CIP106301 / E264)). Description: Binding affinity to Burkholderia thailandensis E264 recombinant IspE (1 to 293 residues) at 250 uM by STD-NMR analysis in presence of ADP.
For assay [4], the target named is T1, 2-C-methyl-D-erythritol 4-phosphate cytidylyltransferase (Burkholderia thailandensis (strain ATCC 700388 / DSM 13276 / CIP106301 / E264)). Description: Binding affinity to Burkholderia thailandensis E264 recombinant IspD (1 to 236 residues) assessed as maximum spectral signal at 250 uM by STD-NMR analysis.
The target of assay [5] is T2, 4-diphosphocytidyl-2-C-methyl-D-erythritol kinase (Burkholderia thailandensis (strain ATCC 700388 / DSM 13276 / CIP106301 / E264)). The assay can be described thus: Binding affinity to Burkholderia thailandensis E264 recombinant IspE (1 to 293 residues) at 250 uM by STD-NMR analysis in presence of ADP and CDP.
For assay [6], the system named is Pseudomonas aeruginosa. Description: Antibacterial activity against Pseudomonas aeruginosa ATCC 27853 at 0.5 mM after 24 to 48 hrs by Kirby-Bauer disc diffusion susceptibility test. It is filed as functional. Conditions: read-out: DIZ. For orientation: A growth-free zone around the sample is the usual read-out of agar diffusion tests.
The subject of assay [7] is Burkholderia thailandensis. The assay can be described thus: Antibacterial activity against Burkholderia thailandensis E264 at 0.1 mM after 24 to 48 hrs by Kirby-Bauer disc diffusion susceptibility test. The class given is functional. The conditions noted are these: read-out: DIZ.
In assay [8] the test system is Burkholderia thailandensis. Description: Antibacterial activity against Burkholderia thailandensis E264 at 1 mM after 24 to 48 hrs by Kirby-Bauer disc diffusion susceptibility test. It is filed as functional. Conditions: read-out: DIZ.
Assay [9] deals with Pseudomonas aeruginosa. Description: Antibacterial activity against Pseudomonas aeruginosa ATCC 27853 at 0.1 mM after 24 to 48 hrs by Kirby-Bauer disc diffusion susceptibility test. The class given is functional. The conditions noted are these: read-out: DIZ.
Assay [10] deals with Burkholderia thailandensis. The assay can be described thus: Antibacterial activity against Burkholderia thailandensis E264 at 0.5 mM after 24 to 48 hrs by Kirby-Bauer disc diffusion susceptibility test. It is filed as functional. Conditions: read-out: DIZ.
Assay [11] relates to Pseudomonas aeruginosa. The assay can be described thus: Antibacterial activity against Pseudomonas aeruginosa ATCC 27853 at 1 mM after 24 to 48 hrs by Kirby-Bauer disc diffusion susceptibility test. The class given is functional. Conditions: read-out: DIZ.

Molecules are shown by their SMILES. Active and inactive are the calls of the source. The rule behind the calls is not given here.

As to `Cn1ncc2c(NCc3ccc(Cl)cc3)ncnc21`, the outcome in [1] and in assay [3] was Active. For the same compound, the %max in assay [2] was found to be 12%; in [4], 6%. In assay [5], the result was inactive.
On to `Cn1ncc2c(NCc3ccc(F)cc3)ncnc21`, for which the %max in [2] worked out at 20%. For the same compound, the result in assay [3] was Active. Further, the result in assay [5] was inactive.
With `Cn1ncc2c(NCc3ccccc3)ncnc21`, in assay [2], the %max amounted to 13%. Also, in assay [3], the outcome was Active. Further, the result in [5] was inactive.
`CC(C)(C)n1ncc2c(NCCc3c(Cl)cccc3Cl)ncnc21`: the %max in [2] is 12%. In addition, in [3], the result was Active. In addition, the outcome in [5] was inactive.
Consider `Cn1ncc2c(NCCc3ccc(Cl)cc3)ncnc21`, for which the %max in [2] came out at 12%. In addition, in [3], the outcome was Active. For the same compound, the outcome in [5] was inactive.
The like results for `CC(C)(C)n1ncc2c(NCc3cccc([N+](=O)[O-])c3)ncnc21` were, in that order, 21%, “Active” and “inactive”.
`CC(C)(C)n1ncc2c(NCc3ccccc3)ncnc21`: the %max in [2] came to 15%. The result in assay [3] was Active. For the same compound, the result in [5] was inactive.
With `CC(C)(C)n1ncc2c(NCCc3c(F)cccc3Cl)ncnc21`, the outcome in [1] and in assay [5] was inactive. The %max in assay [2] amounted to 17%; in assay [4] it was 10%. Moreover, in [3], the result was Active.
Consider `Cn1ncc2c(NCCc3c[nH]c4ccccc34)ncnc21`, for which the zone of inhibition at 500 µM with Pseudomonas aeruginosa [6] was 0 mm; in [10], 12 mm. Also, the zone of inhibition at 100 µM (in assay [7]; in the assay with Pseudomonas aeruginosa [9]) was 0 mm throughout. For the same compound, in [2], the %max is 14%. Moreover, the zone of inhibition at 1000 µM is 14 mm in [8] and 0 mm with Pseudomonas aeruginosa [11]. The outcome in [3] was Active. Further, the outcome in assay [5] was inactive.
Consider `NC[C@H]1O[C@H](O[C@H]2[C@H](O)[C@@H](O[C@H]3O[C@H](CO)[C@@H](O)[C@H](N)[C@H]3O)[C@H](N)C[C@@H]2N)[C@H](O)[C@@H](O)[C@@H]1O` [KANAMYCIN], for which the zone of inhibition at 500 µM in the assay on Pseudomonas aeruginosa [6] worked out at 0 mm; in [10], 22 mm. Moreover, the values for the zone of inhibition at 100 µM (in [7]; with Pseudomonas aeruginosa [9]) were 6 mm and 0 mm, respectively. Moreover, the zone of inhibition at 1000 µM in assay [8] came out at 30 mm; with Pseudomonas aeruginosa [11] it was 0 mm.
As for `Cn1ncc2c(NCc3ccc(Cl)c(Cl)c3)ncnc21`, the result in [1] and in [3] was Active. For the same compound, the %max in [2] came out at 24%; in [4], 6%. For the same compound, the outcome in [5] was inactive.
As to `C[C@H](Nc1ncnc2c1cnn2C)c1ccccc1`, the %max in [2] came out at 17%. In addition, in [3], the outcome was Active. In addition, in [5], the result was inactive.
As for `Cn1ncc2c(NCCc3cccc(F)c3)ncnc21`, the %max in assay [2] was determined as 17%. Further, the result in [3] was Active. The outcome in [5] was inactive.
As for `CC(C)(C)n1ncc2c(NCCO)ncnc21`, the zone of inhibition at 500 µM in the assay with Pseudomonas aeruginosa [6] turned out to be 12 mm; in [10], 8 mm. Also, the zone of inhibition at 100 µM (in assay [7]; in the assay on Pseudomonas aeruginosa [9]) was 0 mm throughout. For the same compound, the zone of inhibition at 1000 µM in [8] was 12 mm; with Pseudomonas aeruginosa [11], 20 mm.
Turning to `Cn1ncc2c(NCCc3c(F)cccc3Cl)ncnc21`, the result in assay [1] and in assay [5] was inactive. Moreover, the values for the %max in assay [2] and in assay [4] were 14% and 6%, respectively. Also, the outcome in assay [3] was Active.
Take `CC(C)(C)n1ncc2c(NCc3ccc(Cl)c(Cl)c3)ncnc21`: the %max in [2] is 21%. Besides, the outcome in assay [3] was Active. The result in [5] was inactive.
Consider `Cn1ncc2c(NCCc3ccc(Cl)cc3Cl)ncnc21`, for which the result in assay [1] and in [3] was Active. The %max in assay [2] stood at 28%; in [4], 8%. Moreover, the outcome in [5] was inactive.
As for `Cn1ncc2c(NCCc3ccccc3F)ncnc21`, the %max in assay [2] stood at 10%. For the same compound, in assay [3], the outcome was Active. Besides, in assay [5], the outcome was inactive.
As to `Cn1ncc2c(NCc3cccc(F)c3)ncnc21`, in assay [2], the %max came out at 24%. The outcome in assay [3] was Active. In assay [5], the outcome was inactive.
The like results for `Cn1ncc2c(NCCc3ccc(F)cc3)ncnc21` were, in that order, 11%, “Active” and “inactive”.
As to `Cn1ncc2c(NCCc3ccc(O)cc3)ncnc21`, the outcome in [1] and in [3] was Active. Moreover, the values for the %max in assay [2] and in assay [4] were 16% and 14%, respectively. In addition, the outcome in assay [5] was inactive.
Consider `CC(C)(C)n1ncc2c(NCc3ccco3)ncnc21`, for which the %max in assay [2] stood at 17%. Further, the outcome in assay [3] was Active. Besides, the outcome in assay [5] was inactive.
In the case of `Cn1ncc2c(NCc3ccccc3F)ncnc21`, the %max in assay [2] came out at 14%. For the same compound, in assay [3], the result was Active. For the same compound, the outcome in assay [5] was inactive.
